Test results as given in article PMC6600181, “Reversal of MK-801-Induced Disruptions in Social Interactions and Working Memory with Simultaneous Administration of LY487379 and VU152100 in Mice” (International Journal of Molecular Sciences, 2019).

Legend:
MK-801-treated mice [1] = tested on: MK-801-treated mice; design: method as in PMID 30054675; details: acute MK-801 model; cited from earlier work
MK-801-treated mice [2] = tested on: MK-801-treated mice; design: method as in PMID 30054675; details: acute MK-801 model; cited from earlier work; remark: listed apart in the source
MK-801-treated mice [3] = experiment: Novel object recognition test (MK-801-induced disruptions); assay type: in vivo, mice (male CD1); details: for treatment of deficits in novel object recognition induced by prolonged MK-801: compounds acutely 24 h later, 30 min before test, LY487379 0.1, 0.5, 1 mg/kg, VU152100 0.1, 0.25, 1 mg/kg; for prevention of MK-801-induced disruptions in object recognition: acute, 30 min before acute MK-801
Experimental: (§1) Schedules of administration are presented graphically in Figure 1. […] Different vehicles were used throughout the study: (1) 0.9% NaCl, (2) 10% Tween 80 or (3) 10% Tween 80 containing 2% DMSO. Vehicles were administered to all animals (e.g., control mice, MK-801-treated mice) in the same schedule as drugs were administered to the drug-treated appropriate groups of mice.
(§2) Male CD1 mice (Charles River, Germany) weighing 20–25 g at the time of arrival were used in behavioural experiments. Animals were kept in standard laboratory cages T3 (265 × 420 × 180 mm, with an area of 825 cm^2), grouped at 10 mice per cage. Animals were kept under standard laboratory conditions (12:12 light:dark cycle, 21–22 °C) with free access to food and water. Animal welfare has been regularly controlled by a veterinarian and animal welfare committee. After 3–4 weeks of acclimatization and handling, the experiments began. Experimental groups consisted of 8 to 10 animals, depending on the procedure. Drugs were administered intraperitoneally (i.p.) at a volume of 10 mL/kg. Experimental assessments were performed by an observer who was blinded to treatment conditions. All procedures described herein were conducted in accordance with the European Communities Council Directive of 22 September 2010 (2010/63/EU) and Polish legislation acts concerning animal experimentation and were approved by the II Local Ethics Committee by the Institute of Pharmacology, Polish Academy of Sciences in Krakow (18/2019, 21.01.2019).
This procedure was adapted from Nilsson et al. and performed as described in a variety of our previous papers. Habituation, training and test trials were performed in a black plastic rectangular arena (40 × 30 × 35 cm) illuminated with a light intensity of 335 lux. During the habituation trial (2 consecutive days), each animal was allowed to explore the arena for 10 min. The next day, during the training trial (T1), mice were placed in the arena and were presented with two identical objects (red glass cylinder; 6.5 cm in diameter and 4.5 cm high) for 5 min. After 1 h, animals were placed back into the arena for a 5 min test trial, during which one of the previously presented familiar objects was replaced with a novel object (a transparent glass elongated sphere-like object with an orange cap; 5.5 cm in diameter and 8.5 cm high). Time spent exploring (i.e., sniffing or touching) the familiar (Tfamiliar) and novel (Tnovel) objects was measured by a trained observer, and the recognition index [%] was calculated for each mouse [(Tnovel – Tfamiliar)/(Tfamiliar + Tnovel)] * 100.

MK-801-treated mice [4] = experiment: Social interaction test (MK-801-induced disruptions); assay type: in vivo, mice (male CD1); details: for treatment of deficits in social interactions induced by prolonged MK-801: compounds acutely 24 h later, 30 min before test, LY487379 0.25, 0.5, 1 mg/kg, VU152100 0.1, 0.25, 5 mg/kg; for prevention of MK-801-induced deficits in social interactions: acute, 30 min before acute MK-801
Experimental: as §1, §2
This procedure was adapted from de Moura Linck et al. and performed as described in our previous papers. Habituation and test trials were performed in a black plastic rectangular arena (40 × 30 × 35 cm) illuminated with a light intensity of 335 lux. During the habituation trial (2 consecutive days), each animal was allowed to explore the arena for 10 min. The test trial was conducted the following day, during which body-weight-matched mice (± 10% difference) from two different cages were placed into the arena for 10 min. Social interactions between the two mice were determined based on the total time spent participating in social behaviours, such as sniffing, genital investigation and chasing.

SMILES	sub-effective dose in social interaction (MK-801-treated mice [1])	sub-effective dose in novel object recognition (MK-801-treated mice [2])	treatment of deficits in novel object recognition induced by prolonged MK-801 (MK-801-treated mice [3]; MK-801 0.3 mg/kg for 7 days)	treatment of deficits in social interactions induced by prolonged MK-801 (MK-801-treated mice [4]; MK-801 0.3 mg/kg for 7 days)	induction of deficits in novel object recognition (MK-801-treated mice [3]; MK-801 0.3 mg/kg for 7 days, observed 24 h after the last administration)	induction of deficits in social interactions (MK-801-treated mice [4]; MK-801 0.3 mg/kg for 7 days, observed 24 h after the last injection)	effect on learning abilities when given alone (MK-801-treated mice [3]; compound alone, without MK-801)	prevention of MK-801-induced disruptions in object recognition (MK-801-treated mice [3]; dose 0.5 mg/kg i.p.)	prevention of MK-801-induced disruptions in object recognition (MK-801-treated mice [3]; doses of 1 and 3 mg/kg i.p.)	effect on social behaviour when given alone (MK-801-treated mice [4]; compound alone, without MK-801)	prevention of MK-801-induced deficits in social interactions (MK-801-treated mice [4]; dose 0.5 mg/kg i.p.)	prevention of MK-801-induced deficits in social interactions (MK-801-treated mice [4]; doses of 1 and 3 mg/kg i.p.)
COc1ccc(CNC(=O)c2sc3nc(C)cc(C)c3c2N)cc1 [VU152100]	0.5 mg/kg	0.25 mg/kg	treated the MK-801-induced deficits at all administered doses	treated MK-801-induced deficits at all administered doses	–	–	–	–	–	–	–	–
C[C@]12N[C@H](Cc3ccccc31)c1ccccc12 [MK-801]	–	–	–	–	induced deficits in the novel object recognition paradigm	induced deficits in social interactions	–	–	–	–	–	–
COc1ccccc1Oc1ccc(N(Cc2cccnc2)S(=O)(=O)CC(F)(F)F)cc1 [LY487379]	–	–	treated the MK-801-induced deficits at all administered doses	treated MK-801-induced deficits at all administered doses	–	–	no effect on learning abilities	ineffective	prevented MK-801-induced disruptions in object recognition	no effect on social behaviour	ineffective	prevented the MK-801-induced deficits
